The target of assay [1] is PDE5 (Homo sapiens, UniProt O76074). Briefly: Determination of % inhibition of PDE5 activity. The assay is classed as biochemical. To be noted: for inhibition at 0.2 µM: Concentration = 0.2 μM; for inhibition at 2 µM: Concentration = 2 μM; for inhibition at 20 µM: Concentration = 20 μM.
Assay [2] has as its system LC3-GFP (H4-LC3 cells). Briefly: LC3-GFP image-based autophagy assay in H4-LC3 cells. The assay is classed as cell-based. As to conditions: with rapamycin; MY-5445 30 μM, dipyridamole 80 μM, IBMX 100 μM, sildenafil 10 μM. The method, then:
FIG. 1 relates to identification of a small molecule inhibitor of autophagy by an image-based screen. A, structure of MBCQ. B, Quantitative analysis of LC3-GFP spot number per cell (a), spot size per cell (b), spot intensity per cell (c). The data are expressed as % of control vehicle treated cells. H4-LC3 cells were seeded in 96 well-plates and incubated with vehicle control (1% DMSO), 0.2 μM rapamycin with or without 10 μM MBCQ for indicated time, fixed with 4% paraformaldehyde and stained with 4,6-diamidino-2-phenylindole (DAPI, 3 μg/ml). Images of 1000 cells for each compound treatment were analyzed by ArrayScan HCS 4.0 Reader with a 20× objective (Cellomics, Pittsburgh, Pa.).
(§1) FIG. 14 depicts MBCQ derivatives that can inhibit autophagy. To calculate EC50, H4-LC3 cells were seeded in 96 well-plates and cultured in the presence of compounds in different concentration for 24 h, and then fixed with polyformate and stained with 4,6-diamidino-2-phenylindole (DAPI, 3 μg/ml). Images data were collected with an ArrayScan HCS 4.0 Reader with a 20× objective (Cellomics, Pittsburgh, Pa.) for DAPI labeled nuclei and GFP-LC3, a marker for autophagy. The Spot Detector Bio-Application was used to acquire and analyze the images after optimization. Images of 1000 cells for each compound treatment were analyzed to obtain average cell number per field, fluorescence spot number, area and intensity per cell. DMSO and rapamycin were used as negative or positive control, respectively. The percentages of changes of LC3-GFP were calculated by dividing with that of DMSO treated samples. Each treatment was done in triplicate for mean and SD. The images were also analyzed using a conventional fluorescence microscope for visual inspection. The experiments were repeated three times
as §1, with “15” for “14”, “with reduced or no ability to” for “that can”, “times.” for “times”
To explore the mechanism of autophagy and identify additional small molecules that can activate it, a high-throughput image-based screen for autophagy regulators was developed. This system takes advantage of the localization of light chain 3 coupled to GFP (LC3-GFP) to autophagosomal membrane upon induction of autophagy (Zhang, L., Yu, J., Pan, H., Hu, P., Hao, Y., Cai, W., Zhu, H., Yu, A. D., Xie, X., Ma, D., et al. (2007). Small molecule regulators of autophagy identified by an image-based high-throughput screen. Proc Natl Acad Sci USA 104, 19023-19028). […] Compounds that increase cellular levels of LC3-GFP, however, are not necessarily able to increase degradative activity of autophagy. Instead, the increases of LC3-GFP may be associated with cell death or may be a result of lysosomal defect and thus associated with blockage of autophagy. […]

Assay [3] concerns Vps34 complexes. Briefly: Levels of endogenous Beclin1, Vps34, Atg14L in H4 and 293T cells (western blot). As to conditions: H4 cells and 293T cells; 10 μM; 3-MA 10 mM. A general note: In western blotting, separated proteins are transferred to a membrane and probed.
Description: Twenty-four hours after the transfection, the cells were treated with indicated compounds for 12 h. The cell lysates were analyzed by western blotting using anti-HA, anti-flag or anti-tubulin. […] The cell lysates were harvested and analyzed by western blotting using: anti-Beclin1, anti-Atg14, anti-Vps34 and anti-UVRAG. Anti-α-tubulin was used as loading controls. […] The cell lysates were harvested and analyzed by western blotting using: anti-Beclin1 and anti-LC3. Anti-α-tubulin was used as loading controls.
Assay [4] has as its system LC3-GFP (H4-LC3-GFP cells). Put plainly: Starvation induced autophagy in H4-LC3-GFP cells. Type of assay: cell-based. To be noted: Hanks buffer 1 h; MBCQ 5 μM, 3-MA 10 mM, wortmannin 0.1 μM. An excerpt:
FIG. 2 depicts results relating to MBCQ inhibition of autophagy induced by starvation. Quantitative measurement of LC3-GFP spot number per cell (a), spot size per cell (b) and spot intensity per cell (c) using HCS and expressed as % of control.

The test system of assay [5] is bax/bak DKO MEF cells. Put plainly: Etoposide induced cell death of bax/bak DKO cells. Type of assay: cell-based, mouse. To be noted: etoposide 8 μM; MBCQ 10 μM, spautin 10 μM, 3-MA 10 mM; 8 h. The method, then: C, cells were collected for western blotting using anti-LC3 antibody. α-tubulin was used as a control. D-F, Bax/bak DKO cells were treated with spautin (10 μM) or indicated concentration, in the presence of or absent etoposide (8 μM) for 8 h or indicated time. […] F, Cells were collected for western blotting using anti-LC3 antibody. α-tubulin was used as a control.
Autophagy has been proposed to contribute to cell death in a number of apoptotic deficient cell types. For example, bax/bak double deficient mouse embryonic fibroblast cells (DKO mefs) are highly resistant to apoptosis (Wei, M. C., Zong, W. X., Cheng, E. H., Lindsten, T., Panoutsakopoulou, V., Ross, A. J., Roth, K. A., MacGregor, G. R., Thompson, C. B., and Korsmeyer, S. J. (2001). Proapoptotic BAX and BAK: a requisite gateway to mitochondrial dysfunction and death. Science 292, 727-730).

`CCCOc1ccccc1-c1nc2nn[nH]c2c(=O)[nH]1` [Zaprinast]: in assay [1], the inhibition (usually the relative decrease from the control value, in per cent) at 0.2 µM is 38%; the inhibition at 2 µM came to 88.4%; the inhibition at 20 µM was 102%.
Consider `CCCc1nn(C)c2c(=O)[nH]c(-c3cc(S(=O)(=O)N4CCN(C)CC4)ccc3OCC)nc12` [Sildenafil], for which the activity on autophagy entry in assay [2] was “None of the PDE5 inhibitors tested”. Further, in assay [1], the inhibition at 0.2 µM turned out to be 96.5%, the inhibition at 2 µM is 98.8% and the inhibition at 20 µM was determined as 102%.
For the compound `OCCN(CCO)c1nc(N2CCCCC2)c2nc(N(CCO)CCO)nc(N3CCCCC3)c2n1` [dipyridamole], the activity on autophagy entry in assay [2] was “None of the PDE5 inhibitors tested”.
Still for that read-out and setting: for `Clc1cccc(Nc2nnc(-c3ccccc3)c3ccccc23)c1` [MY-5445] the value was “None of the PDE5 inhibitors tested”.
In the case of `Cn1cnc(N)c2ncnc1-2` [3-MA, 3-methyladenine], in assay [3], the “levels of endogenous Beclin1, Vps34 and Atg14L” value was “no effect on endogenous Beclin1”. Moreover, in assay [4], the “starvation induced autophagy (LC3-GFP spot number, size, intensity)” value is on record as “inhibited”. Further, the “cell death induced by etoposide” value in assay [5] is listed as “inhibits etoposide induced death”.
Consider `CC(C)Cn1c(=O)n(C)c(=O)c2[nH]cnc21` [IBMX], for which the activity on autophagy result in assay [2] was “None of the PDE5 inhibitors tested”.

These data come from patent US20120258975A1, “Potent Small Molecule Inhibitors of Autophagy, and Methods of Use Thereof” (Shanghai Institute of Organic Chemistry, priority 2009, published 2012).
